Test results from PubChem BioAssay AID652212 (Johns Hopkins Ion Channel Center, 2013).
Calls of active or inactive are those of the source.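 How the source made its calls: active means peak inhibition of the TASK1 potassium channel above a set limit at some dose, plus a fitted dose response; inactive means no inhibition at any dose, or no fitted curve.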

What follows are molecules tested against Potassium channel subfamily K member 3 (Homo sapiens) (UniProt O14649) (assay: TASK1 (KCNK3) potassium channel inhibitors, SAR follow-up, CHO cells, FluxOR thallium flux (AID 652212)). Conditions: FluxOR thallium flux fluorescence.
Chain of Potassium channel subfamily K member 3 (Homo sapiens) (O14649 whole entry, looked up): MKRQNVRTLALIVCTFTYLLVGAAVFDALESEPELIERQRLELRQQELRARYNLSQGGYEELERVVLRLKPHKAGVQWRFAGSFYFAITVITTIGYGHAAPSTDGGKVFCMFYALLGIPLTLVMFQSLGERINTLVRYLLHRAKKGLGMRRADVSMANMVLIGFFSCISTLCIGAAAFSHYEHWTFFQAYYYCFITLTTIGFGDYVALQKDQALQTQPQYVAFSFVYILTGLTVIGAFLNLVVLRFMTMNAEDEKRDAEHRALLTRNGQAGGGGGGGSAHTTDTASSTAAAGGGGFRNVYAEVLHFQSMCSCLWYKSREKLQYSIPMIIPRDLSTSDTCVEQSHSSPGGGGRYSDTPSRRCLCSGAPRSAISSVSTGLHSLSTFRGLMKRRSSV

SMILES	IC50 [nM]
COc1cccc(C(=O)Nc2cccc(NC(=O)c3ccccc3)c2)c1	327
Cc1cccc(C(=O)Nc2cccc(NC(=O)c3ccc(Cl)cc3)c2)c1	149
Cc1ccccc1C(=O)Nc1cccc(NC(=O)c2ccccc2)c1	104
O=C(Nc1cccc(NC(=O)c2ccccc2C(F)(F)F)c1)c1ccccc1	130
O=C(Nc1cccc(NC(=O)c2ccncc2)c1)c1ccccc1	249
O=C(Nc1cccc(NC(=O)c2ccc(F)cc2)c1)c1ccccc1	306
O=C(Nc1cccc(NC(=O)C2CCCCC2)c1)c1ccccc1	79
O=C(Nc1cccc(NC(=O)c2ccsc2)c1)c1ccccc1	162
O=C(Nc1cccc(NC(=O)c2ccccn2)c1)c1ccccc1	86
COc1ccc(C(=O)Nc2cccc(NC(=O)c3cccc(C)c3)c2)cc1	1330
Cc1cccc(C(=O)Nc2cccc(NC(=O)c3ccccc3C)c2)c1	91
O=C(Nc1cccc(NC(=O)c2cccnc2)c1)c1ccccc1	1290
CN(C)c1ccc(C(=O)Nc2cccc(NC(=O)c3ccccc3)c2)cc1	259
Cc1cccc(C(=O)Nc2cccc(NC(=O)c3ccccc3C(C)C)c2)c1	328
COc1ccccc1C(=O)Nc1cccc(NC(=O)c2ccccc2)c1	222
Cc1cccc(C(=O)Nc2cccc(NC(=O)c3ccco3)c2)c1	143
Cc1cccc(C(=O)Nc2cccc(NC(=O)c3ccc(N(C)C)cc3)c2)c1	145
O=C(Nc1cccc(NC(=O)c2cccc(C(F)(F)F)c2)c1)c1ccccc1	157
O=C(Nc1cccc(NC(=O)c2ccoc2)c1)c1ccccc1	799
O=C(Nc1cccc(NC(=O)c2ccccc2Cl)c1)c1ccccc1	497

Other lines, results leading:

IC50 [nM]	SMILES
73	COc1ccccc1C(=O)Nc1cccc(NC(=O)c2ccccc2C)c1
52	O=C(Nc1cccc(NC(=O)c2cccc(Cl)c2)c1)c1ccccc1
31	COc1cccc(C(=O)Nc2cccc(NC(=O)c3cccc(C)c3)c2)c1
30	Cc1cccc(C(=O)Nc2cccc(NC(=O)c3cccc(C)c3)c2)c1
29	O=C(Nc1cccc(NC(=O)c2cccs2)c1)c1ccccc1
25	Cc1cccc(C(=O)Nc2cccc(NC(=O)c3cccc(F)c3)c2)c1
23	Cc1cccc(C(=O)Nc2cccc(NC(=O)c3ccccc3Cl)c2)c1
11	CC(C)c1ccccc1C(=O)Nc1cccc(NC(=O)c2ccccc2OC(F)(F)F)c1
10	COc1ccccc1C(=O)Nc1cccc(NC(=O)c2ccccc2OC)c1
7	COc1ccccc1C(=O)Nc1cccc(NC(=O)c2ccccc2C(C)C)c1
4	COc1ccccc1C(=O)Nc1cccc(NC(=O)c2cccc(C)c2)c1
4	COc1ccccc1C(=O)Nc1cccc(NC(=O)c2ccccc2OC(F)(F)F)c1
3	Cc1cccc(C(=O)Nc2cccc(NC(=O)c3cccc(Cl)c3)c2)c1
2	CCOc1ccccc1C(=O)Nc1cccc(NC(=O)c2ccccc2C(F)(F)F)c1
2	CCOc1ccccc1C(=O)Nc1cccc(NC(=O)c2ccccc2OC)c1
1	CC(C)Oc1ccccc1C(=O)Nc1cccc(NC(=O)c2ccccc2OC(F)(F)F)c1

Same assay, conditions: FluxOR thallium flux fluorescence, at 3 µM (top of the series)

SMILES	normalized flux ratio, lower = inhibition
O=C(Nc1cccc(NC(=O)c2ccc(Cl)cc2)c1)c1ccccc1	inactive
Cc1ccc(C(=O)Nc2cccc(NC(=O)c3ccccc3)c2)cc1	inactive
CC(C)(C)c1ccc(C(=O)Nc2cccc(NC(=O)c3ccccc3)c2)cc1	inactive
O=C(Nc1cccc(NC(=O)c2ccc(C(F)(F)F)cc2)c1)c1ccccc1	inactive
